In US4764515A, “Antitussive and central sedative composition of d-isomer of 3-(4-phenyl-1-piperazinyl)-1,2-propanediol” (priority 1983, dated 1988):
“Also recorded” adds a separate entry of the source. Where two headings read alike, the source gives them in different places.

How the values were obtained:
[1] = tested on: oedema by carrageenin; assay: Carrageenin oedema test in the rat (anti-inflammatory activity); type: in vivo; conditions: po, p.o. 1 h before phlogistic agent, C.L. 95%
From the text: (§1) Screening for anti-inflammatory activity has been carried out employing the established carrageenin and ovoalbumin oedema tests in the rat, according to the methods described by C. A. Winter et al., Proc. Soc. Exp. Biol. Med., 111, 544, 1962 and Turne in "Screening Methods in Pharmacology" Acad. Press N.Y., cpt. 14, p. 164, 1965, respectively.
(§2) The compounds under exam have been administered by the oral route one hour before the injection of the phlogistic agent.

[2] = tested on: oedema by ovoalbumin; assay: Ovoalbumin oedema test in the rat (anti-inflammatory activity); type: in vivo; conditions: po, p.o. 1 h before phlogistic agent, C.L. 95%
From the text: as §1, §2

[3] = tested on: electrical stimulation of the vagus nerv; assay: Antitussive activity in the guinea pig after electrical stimulation of the vagus nerve; type: in vivo; conditions: Cavia porcellus, iv, intravenously 5 min before electric stimulation, C.F. 95%, read-out: DE50 Electric stimulus (antitussive effect)
Experimental: (§3) The results of the antitussive activity tests, carried out in the guinea pig after electrical stimulation of the vagus nerv and exposure for 5 minutes to a 5% citric acid aerosol according to the methods of R. M. Piekirning et al., Arzn.
(§4) The compounds under exam have been administered intravenously 5 minutes before the electric stimulation and orally 60 minutes before the citric acid aerosol.

[4] = tested on: 5% citric acid aerosol; assay: Antitussive activity in the guinea pig after exposure to 5% citric acid aerosol; type: in vivo; conditions: Cavia porcellus, po, read-out: DE50 5% Citric acid (antitussive effect)
[5] = tested on: Central Nervous System; assay: Influence on the sleeping time induced by barbiturates in the mouse (CNS activity); type: in vivo; conditions: 30 min before secobarbital 35 mg/kg i.p., mean ± SE, controls 22.58 ± 1.14
From the text: (§5) Tests have been carried out to determine the CNS activity, by evaluating the influence on the sleeping time induced by barbiturates in the mouse, according to the method of F. M. Berger "Methods in Drug Evaluation" Proc. Int. Symp. Milan, September 1965, North Holland Pubbl. Co., and by recording the electroencephalographic and electromiographic curves in the rat with chronically implanted electrodes, calculating the time (in seconds) in the awakening and sleeping condition (including synchronized and unsynchronized sleep).
(§6) The compounds under exam have been administered orally, in the sleeping time test 30 minutes before the i.p. injection of 35 mg/kg of secobarbital, while in the electroencephalographic test at the beginning of recording.

[6] = tested on: Central Nervous System; assay: Electroencephalographic and electromiographic recording in the rat with chronically implanted electrodes (CNS activity); type: in vivo; conditions: mean ± SE, controls 4.86 ± 0.60
From the text: as §5, §6

[7] = Acute toxicity, mouse; conditions: in vivo, 14 days from administration, C.L. 95%, read-out: DL50
From the text: (§7) Acute toxicity (at 14 days from the admi-
(§8) nistration) of (±) racemic dropropizine
(§9) (+) dextrorotatory isomer and (-) laevorotatory isomer

[8] = Acute toxicity, rat; conditions: in vivo, 14 days from administration, C.L. 95%, read-out: DL50
From the text: as §7, §8, §9

[9] = tested on: antitussive activity; assay: Antitussive activity (overall statement); type: in vivo, guinea pig; conditions: in words; versus racemic mixture; listed as laevorotatory isomer
Experimental: as §3, §4

[10] = tested on: antiinflammatory activity; assay: Antiinflammatory activity (overall statement); type: in vivo, rat; conditions: in words
From the text: as §1, §2

[11] = 3 h, 3th hour, read-out: DE50 Oedema by carrageenin 3th hour
[12] = 6 h, 6th hour, read-out: DE50 Oedema by carrageenin 6th hour
[13] = 1st hour, read-out: DE50 Oedema by carrageenin 1st hour
[14] = 3 h, 3th hour, read-out: DE50 Oedema by ovoalbumin 3th hour
[15] = 6 h, 6th hour, read-out: DE50 Oedema by ovoalbumin 6th hour
[16] = 1st hour, read-out: DE50 Oedema by ovoalbumin 1st hour
[17] = guinea pig, orally 60 min before citric acid aerosol (5 min exposure), C.F. 95%

Compound	ED50 [1, 11]	ED50 [1, 12]	ED50 [1, 13]	ED50 [2, 14]	ED50 [2, 15]	ED50 [2, 16]	ED50 [3]	ED50 [4, 17]	Duration of the sleeping time induced by barbiturates ([5]; 50 mg/kg p.o.)	Duration of the sleeping time induced by barbiturates ([5]; 100 mg/kg p.o.)	Duration of the sleeping time induced by barbiturates ([5]; 200 mg/kg p.o.)	Time spent in the sleeping condition ([6]; 25 mg/kg p.o.)	Time spent in the sleeping condition ([6]; 50 mg/kg p.o.)	Time spent in the sleeping condition ([6]; 100 mg/kg p.o.)	LD50 at 336 h ([7]; ip)	LD50 at 336 h ([7]; po)	LD50 at 336 h ([8]; ip)	LD50 at 336 h ([8]; po)	other results
OC[C@@H](O)CN1CCN(c2ccccc2)CC1 [(-), (-)-dropropizine]	212 mg/kg	241 mg/kg	233 mg/kg	72.2 mg/kg	121 mg/kg	55.6 mg/kg	13.5 mg/kg	151 mg/kg	29.5 ± 2.59 min	54.4 ± 7.36 min	128.83 ± 17.14 min	5.8 ± 0.84 s	5.7 ± 0.48 s	13.68 ± 1.80 s	408 mg/kg	1290 mg/kg	401 mg/kg	887 mg/kg	antitussive activity [9]: unchanged antitussive and antiinflammatory activity; also recorded: same antitussive activity as the racemic mixture; antiinflammatory activity [10]: unchanged antitussive and antiinflammatory activity
OCC(O)CN1CCN(c2ccccc2)CC1 (racemic) [(±), 3-(4-phenyl-1-piperazinyl)-1,2-propanediol]	77.9 mg/kg	117 mg/kg	39 mg/kg	28.5 mg/kg	37.1 mg/kg	23.6 mg/kg	11.7 mg/kg	117 mg/kg	118.83 ± 25.69 min	132.33 ± 13.16 min	134.16 ± 17.55 min				340 mg/kg	900 mg/kg	393 mg/kg	607 mg/kg	
OC[C@H](O)CN1CCN(c2ccccc2)CC1 [(+), d-isomer of 3-(4-phenyl-1-piperazinyl)-1,2-propanediol]	80.5 mg/kg	69.7 mg/kg	43.9 mg/kg				23.5 mg/kg	141 mg/kg				6.18 ± 0.72 s	12.36 ± 0.9 s	28.92 ± 1.7 s	319 mg/kg	872 mg/kg	363 mg/kg	721 mg/kg	
COc1ccc2c3c1O[C@H]1[C@@H](O)C=C[C@H]4[C@@H](C2)N(C)CC[C@@]341 [Codeine, codeine, reference compound]																			ED50 [4]: 65.1 mg/kg
